# Legend:
# Assay in all cases: KINOMEscan competition binding
# Conditions in all cases: compound 10.0 µM
# MARK1 (human) = MARK1 (human) (UniProt Q9P0L2)
# MAP3K4 (human) = MAP3K4 (human) (UniProt Q9Y6R4)
# PAK4 (human) = PAK4 (human) (UniProt O96013)
# MERTK (human) = MERTK (human) (UniProt Q12866)
# MAPK12 (human) = MAPK12 (human) (UniProt P53778)
# MYLK3 (human) = MYLK3 (human) (UniProt Q32MK0)
# ACVR1 (human) = ACVR1 (human) (UniProt Q04771)
# NTRK1 (human) = NTRK1 (human) (UniProt P04629)
# CDK8 (human) = CDK8 (human) (UniProt P49336)
# LATS2 (human) = LATS2 (human) (UniProt Q9NRM7)
# SBK1 (human) = SBK1 (human) (UniProt Q52WX2)
# Chain of SBK1 (human) (Q52WX2 whole entry, looked up): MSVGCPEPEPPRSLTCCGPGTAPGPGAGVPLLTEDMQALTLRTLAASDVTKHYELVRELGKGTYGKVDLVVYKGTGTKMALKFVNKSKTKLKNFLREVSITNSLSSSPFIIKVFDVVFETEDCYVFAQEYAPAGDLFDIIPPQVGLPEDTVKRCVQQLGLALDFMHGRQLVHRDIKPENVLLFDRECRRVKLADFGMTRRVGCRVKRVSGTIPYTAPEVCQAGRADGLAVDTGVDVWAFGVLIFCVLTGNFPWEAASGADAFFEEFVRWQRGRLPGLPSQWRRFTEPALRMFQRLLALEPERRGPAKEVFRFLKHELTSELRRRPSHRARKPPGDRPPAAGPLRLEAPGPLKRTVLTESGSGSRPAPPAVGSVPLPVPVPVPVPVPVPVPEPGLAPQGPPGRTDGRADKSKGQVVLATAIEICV
# [1] = system: KIT (human), P10721 [D816V]
# SIK3 (human) = SIK3 (human) (UniProt Q9Y2K2)
# CLK1 (human) = CLK1 (human) (UniProt P49759)
# Chain of CLK1 (human) (P49759 whole entry, looked up): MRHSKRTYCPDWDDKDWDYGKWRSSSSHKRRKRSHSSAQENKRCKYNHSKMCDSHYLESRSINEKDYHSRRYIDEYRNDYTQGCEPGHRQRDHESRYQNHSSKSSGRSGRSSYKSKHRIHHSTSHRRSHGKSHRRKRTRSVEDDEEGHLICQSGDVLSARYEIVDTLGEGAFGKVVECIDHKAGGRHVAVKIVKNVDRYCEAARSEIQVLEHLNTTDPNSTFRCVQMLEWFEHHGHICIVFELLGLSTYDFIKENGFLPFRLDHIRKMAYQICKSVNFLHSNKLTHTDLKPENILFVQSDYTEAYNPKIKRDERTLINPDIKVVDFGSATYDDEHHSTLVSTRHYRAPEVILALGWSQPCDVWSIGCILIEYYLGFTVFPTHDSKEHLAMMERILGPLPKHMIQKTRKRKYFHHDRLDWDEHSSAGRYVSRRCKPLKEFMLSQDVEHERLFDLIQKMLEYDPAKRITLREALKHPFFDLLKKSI
# MAPK9 (human) = MAPK9 (human) (UniProt P45984)
# RIOK1 (human) = RIOK1 (human) (UniProt Q9BRS2)
# LCK (human) = LCK (human) (UniProt P06239)
# PRKACA (human) = PRKACA (human) (UniProt P17612)
# PIK3CG (human) = PIK3CG (human) (UniProt P48736)
# Chain of PIK3CG (human) (P48736 whole entry, looked up): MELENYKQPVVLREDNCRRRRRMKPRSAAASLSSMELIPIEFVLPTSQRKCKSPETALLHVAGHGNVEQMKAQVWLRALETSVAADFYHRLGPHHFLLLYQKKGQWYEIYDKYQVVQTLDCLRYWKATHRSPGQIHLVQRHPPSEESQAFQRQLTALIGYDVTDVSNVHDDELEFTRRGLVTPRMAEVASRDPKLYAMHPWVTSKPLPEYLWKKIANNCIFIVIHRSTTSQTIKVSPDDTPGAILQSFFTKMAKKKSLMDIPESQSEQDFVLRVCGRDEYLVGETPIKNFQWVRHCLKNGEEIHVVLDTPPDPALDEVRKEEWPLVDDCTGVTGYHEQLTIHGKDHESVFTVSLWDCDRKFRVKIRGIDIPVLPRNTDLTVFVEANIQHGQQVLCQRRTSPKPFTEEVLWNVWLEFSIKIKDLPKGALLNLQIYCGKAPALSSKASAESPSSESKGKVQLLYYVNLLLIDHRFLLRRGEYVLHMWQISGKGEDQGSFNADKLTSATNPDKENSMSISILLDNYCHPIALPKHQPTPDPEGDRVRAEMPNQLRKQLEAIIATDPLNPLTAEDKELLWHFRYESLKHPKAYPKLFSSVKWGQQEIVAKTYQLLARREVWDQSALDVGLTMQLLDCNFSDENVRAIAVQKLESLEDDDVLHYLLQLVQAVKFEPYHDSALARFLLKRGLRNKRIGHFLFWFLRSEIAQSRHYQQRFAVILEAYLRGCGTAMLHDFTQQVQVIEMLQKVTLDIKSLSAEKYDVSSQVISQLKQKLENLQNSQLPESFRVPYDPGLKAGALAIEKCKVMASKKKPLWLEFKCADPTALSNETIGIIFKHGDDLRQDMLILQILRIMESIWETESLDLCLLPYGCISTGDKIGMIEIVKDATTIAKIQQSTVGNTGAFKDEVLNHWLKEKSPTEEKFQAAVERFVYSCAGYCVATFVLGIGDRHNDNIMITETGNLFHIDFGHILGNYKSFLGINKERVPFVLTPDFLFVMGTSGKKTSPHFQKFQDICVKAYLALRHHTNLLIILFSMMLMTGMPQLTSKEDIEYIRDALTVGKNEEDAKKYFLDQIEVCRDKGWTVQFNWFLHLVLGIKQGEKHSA
# PRKD3 (human) = PRKD3 (human) (UniProt O94806)
# GRK1 (human) = GRK1 (human) (UniProt Q15835)
# AKT1 (human) = AKT1 (human) (UniProt P31749)
# CDK2 (human) = CDK2 (human) (UniProt P24941)
# CIT (human) = CIT (human) (UniProt O14578)
# MYLK4 (human) = MYLK4 (human) (UniProt Q86YV6)
# Chain of MYLK4 (human) (Q86YV6 whole entry, looked up): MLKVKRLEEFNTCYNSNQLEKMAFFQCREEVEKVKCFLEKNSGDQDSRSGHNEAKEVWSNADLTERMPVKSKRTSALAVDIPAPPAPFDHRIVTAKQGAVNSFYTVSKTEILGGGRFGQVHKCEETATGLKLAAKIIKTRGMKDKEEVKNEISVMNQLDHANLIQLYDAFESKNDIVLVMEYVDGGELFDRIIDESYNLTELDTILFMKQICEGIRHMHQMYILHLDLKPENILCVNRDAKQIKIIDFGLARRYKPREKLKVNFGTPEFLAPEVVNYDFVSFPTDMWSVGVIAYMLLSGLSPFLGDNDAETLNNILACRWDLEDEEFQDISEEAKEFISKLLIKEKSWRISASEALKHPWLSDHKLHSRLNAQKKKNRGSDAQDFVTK
# SGK110 (human) = SGK110 (human) (UniProt P0C264)
# ICK (human) = ICK (human) (UniProt Q9UPZ9)
# Chain of ICK (human) (Q9UPZ9 whole entry, looked up): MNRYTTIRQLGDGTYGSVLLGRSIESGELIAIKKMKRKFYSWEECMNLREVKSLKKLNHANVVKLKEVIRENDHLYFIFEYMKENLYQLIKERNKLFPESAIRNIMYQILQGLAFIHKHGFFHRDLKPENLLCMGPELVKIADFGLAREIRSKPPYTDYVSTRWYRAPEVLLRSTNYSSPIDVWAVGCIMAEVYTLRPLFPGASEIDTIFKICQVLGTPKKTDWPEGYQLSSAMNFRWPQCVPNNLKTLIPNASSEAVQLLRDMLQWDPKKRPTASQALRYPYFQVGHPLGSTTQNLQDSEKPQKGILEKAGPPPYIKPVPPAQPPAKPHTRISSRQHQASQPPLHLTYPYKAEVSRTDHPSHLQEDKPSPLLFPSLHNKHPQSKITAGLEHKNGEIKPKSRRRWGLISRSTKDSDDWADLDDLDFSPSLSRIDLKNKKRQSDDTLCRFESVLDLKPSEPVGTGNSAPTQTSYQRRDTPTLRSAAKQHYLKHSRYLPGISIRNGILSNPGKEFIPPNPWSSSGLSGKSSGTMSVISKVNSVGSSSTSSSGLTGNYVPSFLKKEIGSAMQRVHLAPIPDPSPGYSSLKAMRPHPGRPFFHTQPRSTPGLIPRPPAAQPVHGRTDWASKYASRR
# LATS1 (human) = LATS1 (human) (UniProt O95835)
# [2] = system: FLT3 (human), P36888 [K663Q]
# [3] = system: ABL1 (human), P00519 [M351T]
# PLK4 (human) = PLK4 (human) (UniProt O00444)
# MAP4K4 (human) = MAP4K4 (human) (UniProt O95819)
# PRKCE (human) = PRKCE (human) (UniProt Q02156)
# Chain of PRKCE (human) (Q02156 whole entry, looked up): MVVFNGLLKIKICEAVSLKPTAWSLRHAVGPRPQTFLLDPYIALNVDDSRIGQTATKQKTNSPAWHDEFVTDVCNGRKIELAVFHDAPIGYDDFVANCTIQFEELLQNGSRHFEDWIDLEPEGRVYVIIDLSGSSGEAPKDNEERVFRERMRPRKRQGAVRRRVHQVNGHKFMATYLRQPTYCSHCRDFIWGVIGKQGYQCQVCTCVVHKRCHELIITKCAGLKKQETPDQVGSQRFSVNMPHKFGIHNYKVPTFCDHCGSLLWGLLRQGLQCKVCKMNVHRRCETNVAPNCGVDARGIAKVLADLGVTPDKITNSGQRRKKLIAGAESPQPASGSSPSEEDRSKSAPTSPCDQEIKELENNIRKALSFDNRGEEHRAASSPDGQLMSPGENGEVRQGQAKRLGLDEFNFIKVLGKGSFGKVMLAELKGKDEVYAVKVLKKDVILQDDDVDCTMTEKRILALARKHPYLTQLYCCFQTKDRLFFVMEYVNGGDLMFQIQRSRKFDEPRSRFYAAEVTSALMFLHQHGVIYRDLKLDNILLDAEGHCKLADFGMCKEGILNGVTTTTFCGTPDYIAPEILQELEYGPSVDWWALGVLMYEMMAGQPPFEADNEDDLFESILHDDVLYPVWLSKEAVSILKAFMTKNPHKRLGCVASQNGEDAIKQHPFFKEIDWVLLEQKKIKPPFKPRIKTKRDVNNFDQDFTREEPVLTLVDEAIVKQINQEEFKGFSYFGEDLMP
# MAP3K3 (human) = MAP3K3 (human) (UniProt Q99759)
# Chain of MAP3K3 (human) (Q99759 whole entry, looked up): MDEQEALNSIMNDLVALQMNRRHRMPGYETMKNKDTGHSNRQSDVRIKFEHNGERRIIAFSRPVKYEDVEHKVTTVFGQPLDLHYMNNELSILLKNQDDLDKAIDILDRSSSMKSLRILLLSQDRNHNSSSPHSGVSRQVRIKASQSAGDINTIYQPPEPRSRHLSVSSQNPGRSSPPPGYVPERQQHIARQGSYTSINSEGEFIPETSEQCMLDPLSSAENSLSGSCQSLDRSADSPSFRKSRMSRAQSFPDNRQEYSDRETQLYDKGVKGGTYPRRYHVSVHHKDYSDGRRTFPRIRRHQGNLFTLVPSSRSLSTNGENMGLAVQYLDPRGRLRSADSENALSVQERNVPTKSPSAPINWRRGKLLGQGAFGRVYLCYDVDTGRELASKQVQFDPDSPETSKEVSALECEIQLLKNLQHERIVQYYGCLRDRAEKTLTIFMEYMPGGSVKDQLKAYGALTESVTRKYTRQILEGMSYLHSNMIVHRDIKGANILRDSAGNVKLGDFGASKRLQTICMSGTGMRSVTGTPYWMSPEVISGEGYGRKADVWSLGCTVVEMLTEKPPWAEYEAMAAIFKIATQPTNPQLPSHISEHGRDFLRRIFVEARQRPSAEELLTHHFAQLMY
# RIPK2 (human) = RIPK2 (human) (UniProt O43353)
# Chain of RIPK2 (human) (O43353 whole entry, looked up): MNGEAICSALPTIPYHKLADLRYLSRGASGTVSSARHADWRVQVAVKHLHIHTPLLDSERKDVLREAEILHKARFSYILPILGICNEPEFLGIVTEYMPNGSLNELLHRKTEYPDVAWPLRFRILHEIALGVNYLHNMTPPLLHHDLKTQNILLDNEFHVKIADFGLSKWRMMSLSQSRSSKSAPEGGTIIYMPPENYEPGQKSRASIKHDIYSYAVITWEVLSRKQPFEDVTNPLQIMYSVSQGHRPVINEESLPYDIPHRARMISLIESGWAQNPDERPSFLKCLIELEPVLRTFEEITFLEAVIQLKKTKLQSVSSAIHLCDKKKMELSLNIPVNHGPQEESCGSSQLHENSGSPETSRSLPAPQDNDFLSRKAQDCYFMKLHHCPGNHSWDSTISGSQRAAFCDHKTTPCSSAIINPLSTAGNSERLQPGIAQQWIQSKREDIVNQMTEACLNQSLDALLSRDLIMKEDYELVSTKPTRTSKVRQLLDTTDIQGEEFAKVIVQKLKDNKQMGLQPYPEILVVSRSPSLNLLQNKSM
# [4] = system: PIK3CA (human), P42336 [M1043I]
# MET (human) = MET (human) (UniProt P08581)
# PHKG2 (human) = PHKG2 (human) (UniProt P15735)
# AKT2 (human) = AKT2 (human) (UniProt P31751)
# [5] = system: ABL1 (human), P00519 [E255K]
# FGFR3 (human) = FGFR3 (human) (UniProt P22607)
# CAMK4 (human) = CAMK4 (human) (UniProt Q16566)
smiles,measurement,setting,value
Cn1cc(C2=C(c3ccc(Cl)cc3Cl)C(=O)NC2=O)c2ccccc21,"kinase still bound, per cent of control",MARK1 (human),96%
same,"kinase still bound, per cent of control",MAP3K4 (human),98%
same,"kinase still bound, per cent of control",PAK4 (human),82%
same,"kinase still bound, per cent of control",MERTK (human),100%
same,"kinase still bound, per cent of control",MAPK12 (human),100%
same,"kinase still bound, per cent of control",MYLK3 (human),90%
same,"kinase still bound, per cent of control",ACVR1 (human),100%
same,"kinase still bound, per cent of control",NTRK1 (human),77%
same,"kinase still bound, per cent of control",CDK8 (human),100%
same,"kinase still bound, per cent of control",LATS2 (human),100%
same,"kinase still bound, per cent of control",SBK1 (human),97%
same,"kinase still bound, per cent of control",[1],89%
same,"kinase still bound, per cent of control",SIK3 (human),86%
same,"kinase still bound, per cent of control",CLK1 (human),1.6%
same,"kinase still bound, per cent of control",MAPK9 (human),59%
same,"kinase still bound, per cent of control",RIOK1 (human),79%
same,"kinase still bound, per cent of control",LCK (human),96%
same,"kinase still bound, per cent of control",PRKACA (human),100%
same,"kinase still bound, per cent of control",PIK3CG (human),93%
same,"kinase still bound, per cent of control",PRKD3 (human),78%
same,"kinase still bound, per cent of control",GRK1 (human),83%
same,"kinase still bound, per cent of control",AKT1 (human),100%
same,"kinase still bound, per cent of control",CDK2 (human),7.4%
same,"kinase still bound, per cent of control",CIT (human),85%
same,"kinase still bound, per cent of control",MYLK4 (human),38%
same,"kinase still bound, per cent of control",SGK110 (human),100%
same,"kinase still bound, per cent of control",ICK (human),12%
same,"kinase still bound, per cent of control",LATS1 (human),100%
same,"kinase still bound, per cent of control",[2],62%
same,"kinase still bound, per cent of control",[3],82%
same,"kinase still bound, per cent of control",PLK4 (human),14%
same,"kinase still bound, per cent of control",MAP4K4 (human),76%
same,"kinase still bound, per cent of control",PRKCE (human),94%
same,"kinase still bound, per cent of control",MAP3K3 (human),88%
same,"kinase still bound, per cent of control",RIPK2 (human),94%
same,"kinase still bound, per cent of control",[4],100%
same,"kinase still bound, per cent of control",MET (human),79%
same,"kinase still bound, per cent of control",PHKG2 (human),80%
same,"kinase still bound, per cent of control",AKT2 (human),100%
same,"kinase still bound, per cent of control",[5],100%
same,"kinase still bound, per cent of control",FGFR3 (human),97%
same,"kinase still bound, per cent of control",CAMK4 (human),98%
COc1ccc(CNC(=O)Nc2ncc([N+](=O)[O-])s2)cc1,"kinase still bound, per cent of control",MARK1 (human),100%
same,"kinase still bound, per cent of control",MAP3K4 (human),100%
same,"kinase still bound, per cent of control",PAK4 (human),74%
same,"kinase still bound, per cent of control",MERTK (human),100%
same,"kinase still bound, per cent of control",MYLK3 (human),52%
same,"kinase still bound, per cent of control",ACVR1 (human),98%
same,"kinase still bound, per cent of control",CDK8 (human),100%
same,"kinase still bound, per cent of control",LATS2 (human),100%
same,"kinase still bound, per cent of control",SBK1 (human),100%
same,"kinase still bound, per cent of control",[1],100%
same,"kinase still bound, per cent of control",SIK3 (human),77%
same,"kinase still bound, per cent of control",CLK1 (human),62%
same,"kinase still bound, per cent of control",MAPK9 (human),84%
same,"kinase still bound, per cent of control",RIOK1 (human),100%
same,"kinase still bound, per cent of control",LCK (human),100%
same,"kinase still bound, per cent of control",PRKACA (human),96%
same,"kinase still bound, per cent of control",PIK3CG (human),100%
same,"kinase still bound, per cent of control",PRKD3 (human),100%
same,"kinase still bound, per cent of control",GRK1 (human),100%
same,"kinase still bound, per cent of control",AKT1 (human),86%
same,"kinase still bound, per cent of control",CDK2 (human),74%
same,"kinase still bound, per cent of control",CIT (human),89%
same,"kinase still bound, per cent of control",MYLK4 (human),91%
same,"kinase still bound, per cent of control",SGK110 (human),83%
same,"kinase still bound, per cent of control",ICK (human),87%
same,"kinase still bound, per cent of control",LATS1 (human),100%
same,"kinase still bound, per cent of control",[2],70%
same,"kinase still bound, per cent of control",[3],63%
same,"kinase still bound, per cent of control",PLK4 (human),99%
same,"kinase still bound, per cent of control",MAP4K4 (human),92%
same,"kinase still bound, per cent of control",PRKCE (human),100%
same,"kinase still bound, per cent of control",MAP3K3 (human),97%
same,"kinase still bound, per cent of control",RIPK2 (human),95%
same,"kinase still bound, per cent of control",[4],100%
same,"kinase still bound, per cent of control",MET (human),92%
same,"kinase still bound, per cent of control",AKT2 (human),99%
same,"kinase still bound, per cent of control",[5],100%
same,"kinase still bound, per cent of control",FGFR3 (human),100%
Cc1cnc(-c2cnc(NCCNc3ccc(C#N)cn3)nc2-c2ccc(Cl)cc2Cl)[nH]1,"kinase still bound, per cent of control",MARK1 (human),91%
same,"kinase still bound, per cent of control",MAP3K4 (human),100%
same,"kinase still bound, per cent of control",PAK4 (human),100%
same,"kinase still bound, per cent of control",MERTK (human),100%
same,"kinase still bound, per cent of control",MAPK12 (human),100%
same,"kinase still bound, per cent of control",MYLK3 (human),78%
same,"kinase still bound, per cent of control",ACVR1 (human),100%
same,"kinase still bound, per cent of control",NTRK1 (human),100%
same,"kinase still bound, per cent of control",CDK8 (human),100%
same,"kinase still bound, per cent of control",LATS2 (human),100%
same,"kinase still bound, per cent of control",SBK1 (human),100%
same,"kinase still bound, per cent of control",[1],100%
same,"kinase still bound, per cent of control",SIK3 (human),84%
same,"kinase still bound, per cent of control",CLK1 (human),49%
same,"kinase still bound, per cent of control",MAPK9 (human),87%
same,"kinase still bound, per cent of control",RIOK1 (human),100%
same,"kinase still bound, per cent of control",LCK (human),100%
same,"kinase still bound, per cent of control",PRKACA (human),100%
same,"kinase still bound, per cent of control",PIK3CG (human),14%
same,"kinase still bound, per cent of control",PRKD3 (human),88%
same,"kinase still bound, per cent of control",GRK1 (human),96%
same,"kinase still bound, per cent of control",AKT1 (human),100%
same,"kinase still bound, per cent of control",CDK2 (human),54%
same,"kinase still bound, per cent of control",CIT (human),100%
same,"kinase still bound, per cent of control",MYLK4 (human),98%
same,"kinase still bound, per cent of control",SGK110 (human),100%
same,"kinase still bound, per cent of control",ICK (human),39%
same,"kinase still bound, per cent of control",LATS1 (human),100%
same,"kinase still bound, per cent of control",[2],78%
same,"kinase still bound, per cent of control",[3],99%
same,"kinase still bound, per cent of control",PLK4 (human),69%
same,"kinase still bound, per cent of control",PRKCE (human),100%
same,"kinase still bound, per cent of control",MAP3K3 (human),100%
same,"kinase still bound, per cent of control",RIPK2 (human),100%
same,"kinase still bound, per cent of control",[4],100%
same,"kinase still bound, per cent of control",MET (human),96%
same,"kinase still bound, per cent of control",PHKG2 (human),100%
same,"kinase still bound, per cent of control",AKT2 (human),100%
same,"kinase still bound, per cent of control",[5],100%
same,"kinase still bound, per cent of control",FGFR3 (human),100%
same,"kinase still bound, per cent of control",CAMK4 (human),100%

# Source: the kinase profiling compilation of Christmann-Franck et al. (2016)
